Series [1] relates to T lymphocytes expressing CXCR5 in PBMCs of healthy donors. Briefly: CXCR5 expression in T-lymphocytes after peptide stimulation (flow cytometry). The following applies: for Percentage of T-lymphocytes expressing CXCR5, 1st and 3rd quartine: 1st and 3rd quartile of 10 donors; for expression of CXCR5 with respect to CTR: T-lymphocytes, Friedman test, result in words; for Percentage of T-lymphocytes expressing CXCR5: peptides 5ug/ml, 4 days after third stimulation; for Percentage of T-lymphocytes expressing CXCR5, Median: median of 10 donors, * P = <0,001 (Friedman). It counts as cell-based, human. How it is done:
In order to evaluate the expression of a specific marker (CXCR5) in cultured […], the cells, 4 days after the third stimulation, were washed twice and stained with anti-CXCR5, in PBS supplemented with 0.5% FCS and 0.01%NaN3 at 4°C. After twenty minutes they were washed twice and analysed on FACSCanto flow cytometer (Becton Dickinson). The data were analyzed using FlowJo software (TreeStar, CA, USA).
Table 3. The CXCR5 expression measured as % of T lymphocytes expressing CXCR5 in PBMCs of healthy donors vs total lymphocytes (median, 1st and 3rd quartile) has been reported. Friedman Repeated Measures Analysis of Variance on Ranks has been performed. Column 1: number of different donors (Pz); column 2: the percentage of control (CTR) not challenged T lymphocytes expressing CXCR5; columns 3-12: the percentage of T lymphocytes expressing CXCR5 after the stimulation with different peptides.
CXCR5, a chemokine transmembrane receptor belonging to the CXC chemokine receptor family plays an essential role in B cell activation (Legler D.F., et al., J. Exp. Med., 1998, 187, 4, 655). The CXCR5 expression was measured as % of T-lymphocytes expressing CXCR5 versus total lymphocytes (median, 1st and 3rd quartile) and Friedman Repeated Measures Analysis of Variance on Ranks was performed.
For orientation: Flow cytometry measures light scatter and fluorescence of single cells or particles in a stream.

For series [2] the following is noted: active vaccination, APP transgenic mice; cited from earlier work.
The conditions of series [3]: phase II studies, patients who received the vaccine; cited from earlier work.

No end group written: not given here.

Experimental for IFN-γ: To do this, the T-lymphocytes form peripheral blood mononuclear cells (PBMCs) response to Aβ[1-42] and Aβ[1-16], Aβ[1-16]-G, Aβ[1-16]+G, Aβ[13-28], Aβ[13-28]-G, Aβ[13-28]+G, Aβ[25-42], Aβ[25-42]-G, Aβ[25-42]+G was studied with the following experimental procedure:
In order to obtain mature dentritic cells, PBMCs from healthy donors were isolated by Ficoll-Hypaque gradient centrifugation (Pharmacia, Uppsala, Sweden). The cells were washed twice with PBS and finally were cultured at 10^6 cells/ml in RPMI 1640 supplemented with 10% (v/v) heat inactivated human serum (Bio Whittaker; Cambrex, Bioscience, Walkersville, MD Usa), 2mM L-glutamine, 20mM HEPES [N-2-hydroxyethylpiperazine-N'-2-ethanesulfonic acid], 1mM sodium pyruvate, 20mM non-essential amino acids, 55 µM 2-β-mercaptoethanol, 10 U/ml penicillin and streptomycin (Gibco and Invitrogen).
In order to obtain a pure culture of human peripheral blood monocytes, cells were purified by plastic adherence at 37°C for 30 minutes, followed by extensive washing with warm PBS to remove non-adherent cells. The monocytes were cultured in six-well plates (0,5 to 1,5 * 10^6 cells/m) in fresh complete medium supplemented with 1000U/ml of recombinant granulocyte-macrophage colony-stimulating factor (rGM-CSF) and 500U/ml interleukin-4 (IL-4, Pharmigen) for four days. The non-adherent mononuclear cells were washed repeatedly and cultured in 96-well round bottom plates (Nunc, Denmark) (10^6 cell/ml) in complete culture medium supplemented with interleukin-2 (IL-2; 5U/ml; Roche) for 4 days and used for subsequent studies. Monocytes-derived immature dendritic cells (DCs) were stimulated with the Aβ[1-16], Aβ[1-16]-G, Aβ[1-16]+G, Aβ[13-28], Aβ[13-28]-G, Aβ[13-28]+G, Aβ[25-42], Aβ[25-42]-G, Aβ[25-42]+G and Aβ[1-42] peptides (5ug/ml) for 1 day. For induction of dentritic cells (DC) maturation, the cells were stimulated with 50ng/ml TNFα (Pharmigen), 10ng/ml IL-6, 10ng/ml IL-1β, and 1µg/ml PGE2 for additional 2 days. Finally, they were cultured with autologous T-lymphocytes in 96-well flat bottom plates at a 1:4 ratio. A second stimulation with mature autologous monocyte-derived DC's previously stimulated with the peptides was performed at 10-14 days at the same ratios. Following further 10-14 days, lymphocytes were labelled with CFDA challenged with a third stimulation of monocyte-derived DC in the presence of peptides.
In order to evaluate the amount of IFN-γ produced by lymphocytes after the final third peptides stimulation the supernatants from cultured cells were harvested at 24 or 48 hr after the third stimulation. Cytokines were quantified by a standard-2-site sandwich enzyme-liked immunosorbent assay (ELISA). Abs for human IFN-γ were purchased from Pharmigen. Enhanced protein-binding ELISA plates (Nunc Maxisorb, Nunc Maxi, Roskilde, Denmark) were used.

As for “Seq.6: Aβ[13-28] fragment modified by introduction of glycines in alternate positions, at odd positions (-G) (GHGKGVGFGEGVGSGK)”, the “Percentage of T-lymphocytes expressing CXCR5, 1st and 3rd quartine” value (shortened to “Percentage … 1st and 3rd quartine”) in series [1] is reported as 11.3-39.9%. Also, the “expression of CXCR5 with respect to CTR” value in series [1] was “statistically different expression of CXCR5 with respect to CTR”. Further, the “Percentage of T-lymphocytes expressing CXCR5” value in series [1] (donor Pz1) was 22.04%; in series [1] (donor Pz2), 23.03%; in series [1] (donor Pz3) it was 25.09%; in series [1] (donor Pz4), 0%; in series [1] (donor Pz5), 13,4%; in series [1] (donor Pz6), 7,3%. Further, the “Percentage of T-lymphocytes expressing CXCR5” value is reported as 14,6% in series [1] (donor Pz7), 43.03% in series [1] (donor Pz8), 31.03% in series [1] (donor Pz9) and 29.05% in series [1] (donor Pz10). The “Percentage of T-lymphocytes expressing CXCR5, Median” value (shortened to “Percentage … Median”) in series [1] was 21.7* %. Further, in the series with IFN-γ, the “production of IFN-γ in challenged T-lymphocytes” value (“production of IFN-γ” for short) is on record as “statistically significative production of IFN-γ”.

Turning to “Seq.5: Aβ[13-28] fragment of the Aβ[1-42] sequence (HHQKLVFFAEDVGSNK)”, the “Percentage … 1st and 3rd quartine” value in series [1] was 8.5-30.4%. Further, the “expression of CXCR5 with respect to CTR” value in series [1] is “statistically different expression of CXCR5 with respect to CTR”. Also, the “Percentage of T-lymphocytes expressing CXCR5” value in series [1] (donor Pz1) is 15.05%; in series [1] (donor Pz2) it was 23.05%; in series [1] (donor Pz3) it was 12.08%; in series [1] (donor Pz4), 1.02%; in series [1] (donor Pz5), 8,5%; in series [1] (donor Pz6), 7,4%. In addition, the “Percentage of T-lymphocytes expressing CXCR5” value is 13,5% in series [1] (donor Pz7), 45.01% in series [1] (donor Pz8), 33.00% in series [1] (donor Pz9) and 30.04% in series [1] (donor Pz10). Also, the “Percentage … Median” value in series [1] is listed as 14.5* %. Also, the “production of IFN-γ” value in the series with IFN-γ is recorded as “statistically significative production of IFN-γ”.

“Seq.1: Aβ[1-42] synthetic peptide, neurotoxic β amyloid peptide [reference compound]”: the “Percentage … 1st and 3rd quartine” value in series [1] was 8.6-40.2%. For the same substance, the “expression of CXCR5 with respect to CTR” value in series [1] was “statistically different expression of CXCR5 with respect to CTR”. Further, the “Percentage of T-lymphocytes expressing CXCR5” value in series [1] (donor Pz1) is given as 19.06%; in series [1] (donor Pz2), 15.07%; in series [1] (donor Pz3), 68.0%; in series [1] (donor Pz4), 0.09%; in series [1] (donor Pz5), 8,6%; in series [1] (donor Pz7) it was 13,3%. In addition, the “Percentage … Median” value in series [1] is 17.7* %. Also, the “production of IFN-γ” value in the series with IFN-γ is on record as “statistically significative production of IFN-γ”.

As to GGNGGGIGGGMGGGVGIG [Seq.10], the “production of IFN-γ” value in the series on IFN-γ is given as “statistically significative production of IFN-γ”.

On to “Seq.3: Aβ[1-16] fragment modified by introduction of glycines in alternate positions, at odd positions (-G) (GAGFGHGSGYGVGHGK)”, for which, in series [1], the “Percentage … 1st and 3rd quartine” value was 14.1-39.9%. Moreover, the “expression of CXCR5 with respect to CTR” value in series [1] is on record as “statistically different expression of CXCR5 with respect to CTR”. The “Percentage of T-lymphocytes expressing CXCR5” value in series [1] (donor Pz1) is 16.05%; in series [1] (donor Pz2), 20.05%; in series [1] (donor Pz3) it was 64.01%; in series [1] (donor Pz4), 2.09%; in series [1] (donor Pz5) it was 9,5%; in series [1] (donor Pz6), 6,9%. Besides, the “Percentage of T-lymphocytes expressing CXCR5” value in series [1] (donor Pz7) is listed as 14,7%; in series [1] (donor Pz8) it was 40.06%; in series [1] (donor Pz9), 35.03%; in series [1] (donor Pz10) it was 36.00%. For the same substance, the “Percentage … Median” value in series [1] was 30.6* %. The “production of IFN-γ” value in the series on IFN-γ is “statistically significative production of IFN-γ”.

For “AN1792: aggregated Aβ[1-42], first βA active vaccination (Pharmaceuticals Inc/Wyeth Pharmaceuticals)”, the amyloid pathology result in series [2] was “showed improvement in amyloid pathology”. The “patients who developed meningoencephalitis” value in series [3] is reported as “about 6%”.

“Seq.9: Aβ[25-42] fragment modified by introduction of glycines in alternate positions, at odd positions (-G) (GSGKGAGIGLGVGGGVGA)”: in series [1], the “Percentage … 1st and 3rd quartine” value was 9.2-33.4%. Further, the “expression of CXCR5 with respect to CTR” value in series [1] is recorded as “statistically different expression of CXCR5 with respect to CTR”. The “Percentage of T-lymphocytes expressing CXCR5” value in series [1] (donor Pz1) is 23.01%; in series [1] (donor Pz2), 15.02%; in series [1] (donor Pz3) it was 11.03%; in series [1] (donor Pz4) it was 0.08%; in series [1] (donor Pz5) it was 11,3%; in series [1] (donor Pz6) it was 7,5%. For the same substance, the “Percentage of T-lymphocytes expressing CXCR5” value in series [1] (donor Pz7) is given as 13,4%; in series [1] (donor Pz8) it was 61.07%; in series [1] (donor Pz9) it was 36.01%; in series [1] (donor Pz10) it was 34.06%. Further, the “Percentage … Median” value in series [1] was 14.9* %. In addition, in the series with IFN-γ, the “production of IFN-γ” value is recorded as “statistically significative production of IFN-γ”.

Consider “Seq.8: Aβ[25-42] fragment of the Aβ[1-42] sequence (GSNKGAIIGLMVGGVVIA)”, for which, in series [1], the “Percentage … 1st and 3rd quartine” value is 8.2-36.7%. Also, in series [1], the “expression of CXCR5 with respect to CTR” value is on record as “statistically different expression of CXCR5 with respect to CTR”. The “Percentage of T-lymphocytes expressing CXCR5” value in series [1] (donor Pz1) is reported as 19.00%; in series [1] (donor Pz2), 13.06%; in series [1] (donor Pz3) it was 64.04%; in series [1] (donor Pz4), 0.08%; in series [1] (donor Pz5), 8,2%; in series [1] (donor Pz6) it was 7,3%. The “Percentage of T-lymphocytes expressing CXCR5” value in series [1] (donor Pz7) was 15,8%; in series [1] (donor Pz8), 45.00%; in series [1] (donor Pz9), 36.07%; in series [1] (donor Pz10), 36.00%. Moreover, the “Percentage … Median” value in series [1] is 17.4* %. The “production of IFN-γ” value in the series with IFN-γ is on record as “statistically significative production of IFN-γ”.

(Values after patent EP2106802A1, “Modified peptides as synthetic vaccines in amyloid-associated disease” (SIGMA-TAU Industrie Farmaceutiche Riunite S.p.A., priority 2008, dated 2009).)
